This note sets out measurements from US8895502B2, “β2-glycoprotein I peptide inhibitors” (Kansas State University Research Foundation, priority 2010, dated 2014).

Ends that are not written are not given here.

For test [1], the system named is hypoxic MS-1 endothelial cells. Briefly: In vitro hypoxia and immunocytochemistry: β2-GPI / anti-β2-GPI mAb binding to hypoxic endothelial cells. It is filed as cell-based, mouse. Conditions: peptide 40 μM during 4 hours hypoxia. As for the experimental part: MS-1 endothelial cells were subjected to hypoxia or normoxia to validate β2-GPI binding in vitro. Hypoxic MS-1 endothelial cells (ATCC CRL-2279) received degassed, serum-free DMEM and were placed in a hypoxia chamber containing 94% nitrogen and 5% CO2. Normoxic cells received DMEM supplemented with 10% heat-inactivated sera from Rag-1^−/− mice in 8% CO2. After 4 hours at 37° C., all cells received fresh medium containing 10% heat-inactivated Rag-1^−/− sera and were incubated in normoxic conditions for 1 hour at 37° C. Additional peptide-inhibition studies were performed by addition of peptides (40 μM final concentration) during the hypoxic period. Cells were methanol fixed and stained with the anti-β2-GPI mAb (Millipore; Billerica, Mass.) followed by an anti-mouse IgG antibody to determine β2-GPI binding. Anti-β2-GPI binding was determined by allowing anti-β2-GPI mAb (Millipore) to bind during the 1 hour normoxic period. The cells were then stained with anti-mouse IgG antibodies (Jackson ImmunoResearch; West Grove, Pa.) as previously described (Fleming, S. D. et al., J. Immunol. 173:7055-7061 (2004)). Slides were mounted with DAPI (Blue) to identify the nuclei. The fluorescence was determined in a blind manner using a Nikon 80i fluorescent microscope with a 40× Plan Fluor objective and images acquired using a CoolSnap Cf camera (Photometrics; Tucson, Ariz.) and MetaVue Imaging software (Molecular Devices; Sunnyvale, Calif.). Each photomicrograph in the Figures is representative of 3 experiments with 4-6 photomicrographs per treatment group in each experiment. Bar=40 μm. Hypoxia was conducted similar to previous studies with the following modifications (Banerjee, S. et al., Reprod. Biol. Endocrinol. 7:4 (2009)). Hypoxic cells received degassed, serum-free DMEM and were placed in a hypoxia chamber containing 94% nitrogen, 5% CO2, and 1% O2. Normoxic cells received normal DMEM with 10% FBS in 8% CO2. After 2 hours at 37° C., all cells received fresh medium containing 10% heat-inactivated Rag-1^−/− sera and then were incubated under normoxic conditions for 1 hour at 37° C. Cells receiving β2-GPI peptides were administered the peptides (40 μM) during the 2 hours of either hypoxia or normoxia. IgG binding was determined using anti-mouse IgG antibodies (Jackson ImmunoResearch) as previously described (Fleming, S. D. et al., J. Immunol. 173:7055-7061 (2004)). Similarly, after Sham or IR, intestinal sections from peptide-treated mice were stained with anti-IgG antibodies to determine antibody deposition. The fluorescence was determined in a blind manner using a Nikon 80i fluorescent microscope and images acquired using a CoolSnap Cf camera (Photometrics) and MetaVue Imaging software (Molecular Devices).

Another test has as its system CD31 (PECAM-1). Put plainly: Intestinal IR, CD31 immunohistochemistry. It is filed as in vivo, mouse. On the set-up: key to CD31 Deposition: + indicates significant difference from Sham treated mice; − indicates not significantly different from C57B1/6 sham treated mice; +/− indicates no significant difference from either C57B1/6 mice subjected to either Sham or IR. The conditions noted are these: for CD31 Deposition: C57Bl/6 mice subjected to IR, peptide 40 μM i.v. 5 min prior to artery occlusion; for expression of adhesion molecule CD31 after IR: C57Bl/6 mice, peptide prior to IR. As for the experimental part: C57Bl/6 and Rag-1^−/− mice were subjected to ischemia followed by reperfusion similar to previously described studies (Moses, T. et al., J. Leukoc. Biol. 86:971-980 (2009)). Briefly, ketamine (16 mg/kg) and xylazine (80 mg/kg) were used to anesthetize the mice. Buprenorphine (0.06 mg/kg) was then administered for pain. A midline laparotomy was performed to expose the abdominal cavity of the mice, which were then allowed to equilibrate for 30 min. Body temperature was maintained at 37° C. using a water-circulating heat pad. Placing a warm, saline moistened piece of gauze over the abdominal cavity prevented peritoneal desiccation. […] Ischemia was noted by the intestine changing from a pink color to a gray color. After 30 min of ischemia, the clamp was removed and the intestines were allowed to reperfuse for 5, 10, 15, or 120 min. […] Mice treated with the various β2-GPI peptides underwent the same procedure with i.v. administration of the peptides (40 μM) 5 min prior to artery occlusion. Peptides 296, 305, and 296Cys to Ser were dissolved in N. Saline (0.9% NaCl) and injected i.v. in 100-μL volumes. Peptides 100 and 181 were dissolved in DMSO prior to diluting 1/100 in N. Saline. Additional mice received peptides prior to Sham treatment.
After euthanasia, an additional 2-cm intestinal section from each mouse was immediately snap frozen in O.C.T. freezing medium and 8 μm sections were placed on slides for immunohistochemistry. The C3 deposition and F4/80 expression on the tissue sections were detected by staining with a purified rat-anti-mouse C3 (Hycult Biotechnologies; Plymouth Meeting, Pa.) or F4/80 (eBioscience; San Diego, Calif.) antibody followed by a Texas-red conjugated donkey-anti-rat IgG secondary antibody (Jackson Immunoresearch). CD31 (PECAM-1) and CD106 (VCAM-1) were detected by FITC conjugated rat anti-mouse CD31 or CD106 (Biolegend; San Diego, Calif.) antibodies. Each experiment contained serial sections stained with the appropriate isotype control antibodies. All slides were mounted with ProLong Gold (Invitrogen). Images were obtained at room temperature using a Nikon Eclipse 80i microscope equipped with a CoolSnap CF camera (Photometrics) and analyzed using Metavue software (Molecular Devices). The fluorescence was semi-quantitated using Image J software (NIH) using the fluorescent area fraction after setting threshold for each experiment. The average of the isotype control was subtracted from each photo.

For “H-IHFYCKNKEKKCSYTVEAHCRDGTI-OH (cysteine pairing not given here) [peptide 296]”, in test [1], the “anti-β2-GPI mAb binding to hypoxic MS-1 cells” value (from here on “anti-β2-GPI mAb binding”) is “did not bind” and the “β2-GPI binding to hypoxic endothelial cells” value (“β2-GPI binding” for short) is given as “capable of preventing β2-GPI from binding”. In addition, in the test with CD31 (PECAM-1), the “CD31 Deposition” value is reported as “−” and the “expression of adhesion molecule CD31 after IR” value (“expression” for short) is listed as “inhibited”.
For the substance “H-IHFYSKNKEKKSSYTVEAHSRDGTI-OH [peptide 296Cys-Ser]”, in test [1], the “β2-GPI binding” value is given as “attenuated β2-GPI binding”. Also, in the test on CD31 (PECAM-1), the “CD31 Deposition” value is listed as “−” and the “expression” value is “inhibited”.
On to “H-IPSCFKEHSSLAFWKTDASELTPC-NH2 (cysteine pairing not given here) [peptide 322, 18]”, for which the “anti-β2-GPI mAb binding” value in test [1] is reported as “did not inhibit antibody binding”. The “CD31 Deposition” value with CD31 (PECAM-1) is recorded as “+”.
In the case of “H-KKCSYTVEAHCRDGTIEIPSCFKEHS-OH (cysteine pairing not given here) [peptide 305, 10]”, in test [1], the “anti-β2-GPI mAb binding” value is on record as “did not bind” and the “β2-GPI binding” value is on record as “capable of preventing β2-GPI from binding”. In addition, in the test on CD31 (PECAM-1), the “CD31 Deposition” value was “+” and the “expression” value is given as “inhibited”.
Consider “H-KNISFACNPGFFLNG-NH2 [peptide 100, 16, reference compound]”, for which the “anti-β2-GPI mAb binding” value in test [1] was “did not inhibit antibody binding”. Also, in the test with CD31 (PECAM-1), the “CD31 Deposition” value is “+”; the “expression” value was “significantly different from both Sham and IR treated mice”.
